Key:
HepG2 cells [1] = test: MTT antiproliferative assay, HepG2; type: cell-based, human
Protocol: (§1) All cells were incubated at 37 °C by DMEM complete medium (containing 1% penicillin−streptomycin and 12% FBS) in 5% CO2 incubator. 2–5 × 10^3 cells were cultured in 96‐well plates and each well contained 100 µL complete medium. OXA was dissolved in water, and all other complexes were dissolved in DMF. After cells adhered in the wells, different concentrations of complexes were diluted in 100 µL complete medium and added in the wells. The final volume in the each well was 200 µL and the content of DMF was maximum 0.5%. After 72 h incubation, the antiproliferative activity was tested by MTT assay.

[2] = In vivo tolerability (body weight, survival, organ H&E)
Protocol: All mice were 6–8 weeks old males and procured from Hangzhou Medical College, located in Hangzhou, China. […] 2 × 10^6 Hepa1‐6 cells in 100 µL DMEM were subcutaneously seeded in underarms of C57BL/6 mice. […] Meanwhile, the mice weights and tumor volume were recorded, and the calculation formula of tumor volume was Volume = Width^2 × Length/2. After 13 days, all mice were sacrificed for collection of tumors, hearts, livers, spleens, lungs and kidneys. Collagenase IV (1 mg mL^−1) and DNase I (1 µg mL^−1) were applied to digest a part of the tumor tissue into cell suspension, and lysis buffer was used to remove red blood cells. The prepared cells above were stained with antibodies (anti‐CD3e‐FITC, and anti‐CD8a‐PE; anti‐CD11c‐APC, anti‐CD80‐PE, and anti‐CD86‐FITC; anti‐CD45‐Percp, anti‐CD11b‐APC, and anti‐Ly‐6G/Ly‐6C(Gr‐1)‐FITC; anti‐CD11b‐APC, anti‐CD206‐PE, and CD86‐FITC). CD3^+CD8^+ T cells, CD80^+CD86^+ DCs, CD11b^+Gr‐1^+ MDSCs, CD206^−CD86^+ M1‐type macrophages and CD206^+CD86^− M2‐type macrophages were analyzed by flow cytometry. Then, another part of tumor tissues were fixed with 4% paraformaldehyde, embedded in paraffin, cut into slices and stained with antibodies for immunofluorescence and immunohistochemistry analysis. H&E stain assays were applied for all tissue samples.

HIF-1α = test: Western blot of HIF-1α in HepG2; type: cell-based, human; details: HepG2, 24 h
Protocol: (§2) HepG2 cells were incubated in 6 cm culture dishes and treated with different complexes. The treated cells were lysed with lysis buffer (RIPA:PMSF:phosphatase inhibitor:protease inhibitor = 100:1:1:1). The lysed cells were further broken by sonication, and proteins were isolated by centrifugation. The protein concentrations were detected by BCA assay. 10% SDS PAGE gel was usually applied to separate the different kDa of proteins, and more than 200 kDa of proteins were separated using 8% SDS PAGE gel. After seperation, proteins were transferred onto polyvinylidene difluoride (PVDF) membranes. The target proteins were labeled by various specific primary antibodies at 4 °C overnight. Then, the membranes were treated with anti‐rabbit or anti‐mouse secondary antibody for 2 h. Tris buffered saline with tween 20 (TBST) was applied to wash the membranes after each operation above. The target proteins’ bands were detected by the enhanced chemiluminescence (ECL) procedure.

[3] = test system: immune cells in Hepa1-6 tumor and spleen tissue; test: In vivo immune cell and marker analysis (flow cytometry, immunofluorescence, immunohistochemistry); parameters: species or system C57BL/6 mice
TrxR = molecular target: T1, TrxR (Homo sapiens, UniProt Q16881); test: CETSA and ITDR assay, TrxR; type: binding; details: HepG2 proteins, 8 µM, ITDR at 78 °C
T1 construct: endogenous in cells; host or cells: HepG2
T1 sequence (Q16881 151-649 limits assumed): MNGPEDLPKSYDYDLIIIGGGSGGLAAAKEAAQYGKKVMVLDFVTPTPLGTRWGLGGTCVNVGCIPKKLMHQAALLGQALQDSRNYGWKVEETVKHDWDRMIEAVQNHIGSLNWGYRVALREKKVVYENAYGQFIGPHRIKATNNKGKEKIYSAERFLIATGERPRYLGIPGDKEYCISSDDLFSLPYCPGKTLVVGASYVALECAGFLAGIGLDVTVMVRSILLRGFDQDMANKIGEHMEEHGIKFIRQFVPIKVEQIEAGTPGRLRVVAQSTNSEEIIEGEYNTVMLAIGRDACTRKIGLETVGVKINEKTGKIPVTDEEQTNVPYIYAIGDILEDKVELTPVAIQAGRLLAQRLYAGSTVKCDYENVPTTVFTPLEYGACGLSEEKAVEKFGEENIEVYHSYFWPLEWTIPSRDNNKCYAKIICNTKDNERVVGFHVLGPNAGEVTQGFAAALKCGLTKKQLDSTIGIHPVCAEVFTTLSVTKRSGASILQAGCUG
Protocol: The treated HepG2 cells in 10 cm culture dishes were collected and washed with PBS. The collected cells were repeatedly frozen and thawed for 3 times by liquid nitrogen and 37 °C water bath. Then, proteins were isolated by centrifugation. The isolated proteins were divided into different tubes and incubated with same concentration of 6d at different temperature. Western blot was applied for CETSA by analyzing the band intensity of different temperature groups.
The temperature, which results in significant band differences between 6d and control group, was selected for ITDR assay. The isolated proteins were divided into different tubes and incubated with different concentration of 6d at same temperature. The binding between 6d and target protein was assessed by analyzing the band intensity of different concentration groups.

[4] = test system: MAPK pathway (phosphorylated MEK1/2 and ERK1/2); test: In vivo MAPK pathway in tumor tissue; parameters: species or system C57BL/6 mice; details: western blot, day 13
Hepa1-6 cells = test: MTT antiproliferative assay, Hepa1-6; type: cell-based; details: Hepa 1-6 cells
Protocol: as §1

[5] = mouse, in vivo
HepG2 cells [6] = test: DAMPs / ICD effect (CRT, HMGB1, ATP release); type: cell-based, human
Protocol: 6‐well plate was applied to incubate 2 × 10^5 HepG2 cells. […] After treatment, the liquid was collected for extracellular ATP release assay by ATP Assay kit.
as §2
5 × 10^4 HepG2 cells were treated with complexes in 24‐well plates for 24 h. Subsequently, cells were fixed with 4% paraformaldehyde. Various specific antibodies were added for incubation at 4 °C overnight after cells were permeabilized with Triton X‐100 (except for membrane proteins) and blocked with BSA. Then, the cells were incubated with fluorescently‐labeled secondary antibodies in darkness for 2 h. After that, DAPI was added to stain nuclear in darkness. PBS was applied for washing after each operation above (Tris buffered saline (TBS) was applied for washing if phosphorylated protein was analyzed). The cell images were captured by the fluorescence microscopy.

[7] = flow cytometry and immunofluorescence

With `CCn1ccn(CCCCCOc2ccc([C@@H]3COc4c(ccc5c4C=CC(C)(C)O5)C3)c(OCCCCCn3ccn(CC)[c]3=[Au][Br])c2)[c]1=[Au][Br]` [6d] the IC50 (HepG2 cells [1]; 72 h MTT assay, Mean ± SD) was 2540 ± 130 nM, the “times more toxic than GLA” value (HepG2 cells [1]; HepG2 cells) was 16 times and the “effect on mice body weight” value ([2]; 6d and OXA 5 mg kg^−1, GLA 10 mg kg^−1, i.p. every two days, OXA after nine days) was “no significant effect”. The “organ tissue damage (H&E staining)” value ([2]; heart, liver, spleen, lung, kidney, day 13) was “did not cause noticeable damage to organ tissues”, the “HIF-1α expression (western blot)” value (HIF-1α) was “significantly inhibited” and the “DC maturation in spleen and tumor tissues” value [3, 7] was “induced DC maturation”. The “macrophage polarization in tumor” value [3, 7] was “significantly promoted M1‐type macrophage polarization”, the “T lymphocyte infiltration in tumor” value ([3]; flow cytometry and immunohistochemistry) was “promoted T lymphocyte infiltration” and the “Arg-1 expression in tumor tissue” value ([3]; immunofluorescence) was “downregulation”. For the same compound, the “CRT exposure in tumor tissue” value ([3]; immunofluorescence) was “promoted CRT exposure”, the “GzmB expression in tumor tissue” value ([3]; immunofluorescence, OXA vs model group, 6d vs OXA group) was “significantly upregulated GzmB expression” and the “MDSC infiltration in tumor” value ([3]; vs model group, 13 days) was “reducing the infiltration”. The “Treg infiltration in tumor (Foxp3)” value ([3]; vs model group, 13 days) was “reducing the infiltration”, the “binding to TrxR (CETSA, ITDR)” value (TrxR) was “significant binding” and the “MAPK pathway activation (phosphorylation of MEK1/2 and ERK1/2) in tumor tissue” value [4] was “significantly inhibited”. For the same compound, the “times more toxic than GLA” value (Hepa1-6 cells) was 34 times, the safe dose [5] was 5 mg/kg and the “time required for ATP release” value (HepG2 cells [6]; HepG2, 8 µM, ATP assay kit) was 48 h. For the same compound, the “CRT expression (western blot)” value (HepG2 cells [6]; HepG2, 24 h) was “CRT upregulation” and the “HMGB1 expression (western blot)” value (HepG2 cells [6]; HepG2, 24 h) was “HMGB1 downregulation”.

Reference: publication PMC12591170, “Glabridin‐Gold(I) Complex as a Novel Immunomodulatory Agent Targeting TrxR and MAPK Pathways for Synergistic Enhancement of Antitumor Immunity” (Advanced Science, 2025)
